Data reported in the NIST ThermoML archive (doi:10.1016/j.fluid.2017.04.016).

Assay: mean ionic activity coefficient (dimensionless); mn = molality of the nth substance listed, in mol/kg
Conditions: 101 kPa, Liquid, galvanic cell

[Br-].[Na+] [sodium bromide] + O
mean ionic activity coefficient
Conditions | 298.2 K | 310.2 K
m1 = 0.01 | 0.875 | –
m1 = 0.0508 | 0.835 | 0.714
m1 = 0.1 | – | 0.631
m1 = 0.1009 | 0.777 | –
m1 = 0.25 | – | 0.669
m1 = 0.2509 | 0.799 | –
m1 = 0.5004 | 0.699 | –
m1 = 0.5731 | – | 0.579
m1 = 0.75 | 0.637 | –
m1 = 0.7503 | – | 0.559
m1 = 1 | 0.612 | 0.547
m1 = 1.25 | 0.587 | 0.553
m1 = 1.5 | 0.57 | 0.576
m1 = 1.75 | 0.575 | 0.61
m1 = 2 | 0.642 | 0.635
m1 = 2.25 | 0.633 | 0.643
m1 = 2.5 | 0.644 | 0.646
m1 = 2.75 | 0.584 | 0.711
m1 = 3 | 0.616 | 0.846
